Measurements reported in ChEMBL document CHEMBL1158922, “Antineoplastic agents, 177. Isolation and structure of phyllanthostatin 6” (1990).
Converted amounts (≈) assume the structure as drawn.

Tested on: P388
Experiment: Cytotoxicity against mouse P388 cells
Format: functional
Conditions: read-out: ED50 (the source's name)

CC1CO[C@]2(CC1OC(=O)/C=C/c1ccccc1)OC1CC(C(=O)O[C@@H]3O[C@H](CO)[C@@H](O)[C@H](O)[C@H]3O[C@@H]3O[C@H](C)[C@@H](O)[C@H](O)[C@H]3O)CCC1[C@]21CO1 (stereo partly specified) [PHYLLANTHOSTATIN 6]
EC50: 0.35 µg/mL (≈ 0.475 µM)
